Results: patent US12011476B2, “Treatments of oxidative stress conditions” (The University of Vermont and State Agricultural College, priority 2012, dated 2024)

Legend:
Type in all cases: cell-based, murine
caspase 8 = assay: Caspase-Glo 8 assay after FasL stimulation; conditions: FasL-stimulated cells, compared to the respective control
Method: (§1) Exposure of cells to FasL: C10 cells were treated with 150 ng/ml FLAG-FasL (Alexis, San Diego, CA), plus 0.5 micrograms/ml anti-FLAG cross linking antibody, M2 (Sigma, St. Louis, MO). Primary lung fibroblasts and MTECs were treated with 300 ng/ml FasL, plus 1 microgram/ml M2. As reagent controls, cells were treated with M2 alone.
(§2) Caspase-Glo assay: Caspase-8 and caspase-3 activities were measured using a Caspase-Glo 8 and Caspase-Glo 3/7 (Promega, Madison, WI) reagents, respectively according to the manufacturer's protocol (Promega, Madison, WI). Results were expressed in Relative Luminescence Units (RLU), after subtraction of background luminescence values. All results were obtained from 3 independent experiments conducted in triplicate.

caspase 3 = assay: Caspase-Glo 3/7 assay after FasL stimulation; conditions: FasL-stimulated cells, compared to the respective control
Method: as §1, §2

Fas-SSG [1] = assay: Immunoprecipitation of S-glutathionylated Fas (Fas-SSG) after FasL stimulation; conditions: FasL-stimulated cells, compared to the respective control (muscimol, DMSO, control siRNA)
Method: as §1
Immunoprecipitation of S-glutathionylated Fas: Immunoprecipitation of S-glutathionylated Fas was performed using established techniques.
C10 lung epithelial cells were stimulated with Flag tagged FasL plus anti-Flag (M2) crosslinking antibody, M2 alone (0), and at the indicated times, lysates were prepared and immunoprecipitated (IP) using an anti-GSH antibody. The subsequent western blot was probed with anti-Fas antibody (top panel). The +DTT control reflects lysates prepared from FasL-stimulated cells at 120 min treated with 25 mM DTT prior to IP with the anti-GSH antibody. Bottom panels: Content of Fas and Grx1 in whole cell lysates (WCL). […] C10 lung epithelial cells were stimulated with FasL plus M2 crosslinking antibody, or M2 alone, and at the indicated times, supernatants were collected. Free GSH was measured. * p<0.05 (ANOVA), compared to M2 controls at the same time points.

C10 cells = assay: Cell viability assay (MTT) after FasL stimulation; conditions: MTT assay after stimulation with FasL
Method: Cell viability assay: C10 cells or primary lung fibroblasts were plated in 12-well dishes. The MTT (3-(4,5-dimethylthiazol-2-yl)-2,5-diphenyltetrazolium bromide) assay was performed using known techniques. Results were obtained from 3 independent experiments conducted in triplicate.
Cells were exposed to FasL, and cell lysates processed as in FIG. 1A. Western blots from WCL were sequentially probed for Fas, ERp57 and GSTP1. […] Cells were treated with FasL, and lysates processed as in FIG. 2B. […] Cells were transfected with ERp57 and GSTP1 siRNA (E+P), and 24 hours later were exposed to FasL+M2 crosslinking antibody (FL), or M2 alone for 30 min. Cell lysates were subjected to IP of the DISC. Western blots were sequentially probed for Fas, FADD, procaspase 8, ERp57 and GSTP1. WCL: assessment of the same proteins in whole cell lysates, as a control.

Fas-SH = assay: Labeling of free sulfhydryls of Fas (Fas-SH) with MPB, oxidative processing; conditions: FasL-stimulated cells
Method: Microscopy: Cells were fixed in 4% formalin and permeabilizied with 0.2% Triton-X100 in PBS. Permeabilized cells were blocked in PBS containing 2% BSA for 1 hour. Cells were sequentially incubated with primary antibodies (1:500-rabbit anti-ERp57/mouse anti-Fas) and secondary antibodies (1:1000-anti-rabbit-Alexa Fluor 488/anti-mouse Alexa Fluor 647). The nucleus was stained with DAPI (1:4000). Images were acquired using a Zeiss LSM 510 META Confocal Laser Scanning Imaging System. Images were captured at 40× magnification in oil immersion. The image files were converted to Tiff format. Brightness and contrast were adjusted equally in all images. Labeling of free sulfhydryls using biotinylated N-ethyl maleimide (MPB): Cells were lysed in HEPES buffer, pH 7.4 containing 0.5% NP40, with 150 micromolar MPB for 1 hour at ambient temperature. Lysates were centrifuged at 14,000 rpm and passed through a microbiospin (Bio-Rad) column to separate free MPB. The eluent whole cell lysate was immunoprecipitated using an anti-Fas antibody and sequentially probed using streptavidin HRP and anti-Fas antibody.
The transmembrane domain is underlined. ELD; extracellular ligand binding domain, CDD; Cytoplasmic Death Domain. […] C10 lung epithelial cells were treated with FasL. The lysates were labeled with MPB, and IPed using an anti-Fas antibody. […]

Fas-SSG [2] = assay: Cell fractionation and IP of Fas-SSG (ER vs cytosol/pm); conditions: FasL-stimulated cells, vs DMSO vehicle control, FIG. 3D
Method: Cell Fractionation: Cell fractionation was carried out using the Calbiochem ProteoExtractTR (Cat. No. 539790) subcellular proteome extraction kit per the manufacturer's protocol.
Proteins from each fraction were subjected to IP using anti-GSH antibody. Western blots were probed for Fas. 25 micrograms of total protein from each fractions were separated on a SDS-PAGE and probed for Fas, ERp57, GSTP1, Prx1 (cytosolic protein), Flotillinl (Flot1, plasma membrane protein), calreticulin (CRT, an ER restricted protein), histone H3 (nuclear marker). […] Cells were treated with FasL, stained with ERp57, Fas, and the nuclear marker, DAPI. Merged images indicate co-localization of Fas and ERp57. […] Proteins from fractions characterized in FIG. 3A were subjected to IP using anti-GSTP1 antibodies, or control IgG. […] Epithelial cells were treated with FasL, in the presence or absence of Brefeldin A. Cells were fractionated as in FIG. 3A, and proteins from each fraction were subjected to IP using anti-GSH antibody. Western blots were probed for Fas. 25 micrograms of total protein from each fraction was separated on a SDS-PAGE and probed for Fas, ERp57, GSTP1, Prx1 (cytosol), Flot1 (plasma membrane), CRT (ER), H3 (nucleus).

GSTP = target: T1, GSTP (Mus musculus, UniProt P19157); assay: GST activity assay (CDNB-GST) in treated cells; conditions: cells incubated with 50 micromolar for 2 hours, vs 0.2% DMSO, FIG. 5F
T1 construct: endogenous in cells; host or cells: murine lung epithelial cells (C10)
Method: GST activity assay: The GST activity was determined using a colorimetric activity assay kit (ab65326, Abcam, Cambridge, MA) based on the GST-catalyzed reaction between GSH and the GST substrate, CDNB (1-chloro-2,4-dinitrobenzene). The GST-catalyzed formation of CDNB-GSH produced a dinitrophenyl thioether which can be detected spectrophotometrically at 340 nm.
(§3) The results are expressed as nmol of CDNB […]/min/mg protein. * p<0.05 (Student t-test) compared to DMSO controls. […] Cells were pre-incubated TLK-199 or DMSO for 2 hours, prior to stimulation with FasL. Lysates were processed as in FIG. 1A. Inhibition of GSTP decreased the activities of caspases 8 (FIG. 5H) and 3 (FIG. 5I) induced by FasL. * p<0.05 ANOVA, compared to DMSO controls. […] Mus: muscimol control. * p<0.05 ANOVA, compared to TNF-alpha+CHX controls.

caspase-3 = assay: TNF-alpha plus cycloheximide (CHX) induced caspase-3 activation; conditions: pre-incubation before TNF-alpha in the presence of cycloheximide, FIG. 5J
Method: as §2
In addition to Fas, the extracellular/ligand binding domains of other members of the TNF receptor superfamily also contained cysteines that form intra-molecular disulfide bridges (—S—S—) to create the ligand binding domain. These experiments therefore determined whether ERp57-mediated oxidative processing regulates TNFR-dependent apoptosis. Cells were incubated with the ERp57 inhibitor, thiomuscimol prior to stimulation with TNF-alpha in the presence of cycloheximide (CHX) to induce apoptosis.
as §3

ERp57 = assay: Protein disulfide isomerase (PDI) assay, insulin reduction, lysates of treated cells
Method: Protein disulfide isomerase (PDI) assay: 10 micrograms of total cell lysates were incubated with folded insulin, fibril protein binding dye for 1 hr. The fluorescence was then measured in a microplate reader set at a excitation of 500 nm and an emission of 603 nm, per the manufacturer's protocol (Proteostat™ PDI assay kit ENZ-51024-KP002). All results were obtained from 3 independent experiments conducted in triplicate.
Pharmacologic inhibition of ERp57 and GSTP1 decreased Fas-SSG and caspase activation: next, the contribution of the catalytic activities of ERp57 and GSTP in mediating S-glutathionylation of Fas, and subsequent activation of caspases, was asessed.
The results are expressed as relative fluorescence units (RFU). * p<0.05 (Student t-test) compared to muscimol treated cells. […] Cell lysates were processed as in FIG. 1A to determine Fas-SSG (FIGS. 5D and 5E). Inhibition of ERp57 decreased caspase 8, and caspase 3 activities. * p<0.05 ANOVA, compared to muscimol-treated cells.

T1 sequence (P19157 2-210): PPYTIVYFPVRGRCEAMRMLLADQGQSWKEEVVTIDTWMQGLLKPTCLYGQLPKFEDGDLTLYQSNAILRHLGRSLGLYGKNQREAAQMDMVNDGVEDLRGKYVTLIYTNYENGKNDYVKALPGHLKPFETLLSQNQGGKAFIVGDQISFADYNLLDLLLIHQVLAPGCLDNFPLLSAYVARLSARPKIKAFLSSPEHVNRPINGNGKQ

Structure (SMILES) | caspase 8 activity in response to FasL (caspase 8) | caspase 3 activity in response to FasL (caspase 3) | Fas-SSG in response to FasL (Fas-SSG [1]) | TNF-alpha/CHX-mediated activation of caspase-3 (caspase-3) | other results
CC(=O)OCOC(=O)CN(CC(=O)OCOC(C)=O)c1ccccc1OCCOc1ccccc1N(CC(=O)OCOC(C)=O)CC(=O)OCOC(C)=O [BAPTA-AM] | decreased | decreased | substantially diminished |  | cell survival / cell death in response to FasL (C10 cells): increased cell survival; Fas-SH content (oxidative processing of Fas) after FasL (Fas-SH): completely prevented the loss of Fas-SH groups
C[C@H]1CCC/C=C/[C@@H]2C[C@H](O)C[C@H]2[C@H](O)/C=C/C(=O)O1 [Brefeldin A] |  |  |  |  | movement of Fas-SSG from ER to cytosol/pm (Fas-SSG [2]): Fas-SSG remained restricted to the ER fraction
CCOC(=O)[C@@H](N)CCC(=O)N[C@@H](CSCc1ccccc1)C(=O)N[C@@H](C(=O)OCC)c1ccccc1 [TLK199, gamma-glutamyl-S-(benzyl)cysteinyl-R-phenyl glycine diethyl ester] | diminished | diminished | diminished |  | decrease in GSTP activity (GSTP): 80%
CC1(C)CC(=O)CC(=O)C1 [dimedone, 5,5-dimethyl-1,3-cyclohexanedione] |  |  | abolished |  | 
NCc1cc(=O)[nH]o1 [muscimol] |  |  |  | did not affect apoptosis | 
NCc1cc(O)ns1 [thiomuscimol, 5-aminomethyl-3-isothiazolol] | corresponding decreases | corresponding decreases | significantly attenuated | significantly decreased | inhibition of ERp57, as measured by RFU (ERp57; FIG. 10, THM vs DMSO, lysates incubated with Bacitracin for 2 hrs as positive control): exhibited inhibition of ERp57; decrease in insulin reducing activity (ERp57; epithelial cells incubated with thiomuscimol (10 micromolar), compared to muscimol controls, FIG. 5A): ~50%
